In patent US7078400B2, “20-HETE synthase inhibitor” (Taisho Pharmaceutical Co., Ltd., priority 1999, dated 2006):

System: 20-HETE synthase originated from rat kidney microsome
Experiment: Inhibitory effect of 20-HETE synthase originated from rat kidney microsome
Assay type: biochemical
Details: for Inhibition rate (1 μM): 20-HETE production without compound set to 100%; for IC50: concentration at which production of 20-HETE was inhibited to 50%
Description: Experimental Example [Inhibitory effect of 20-HETE synthase originated from rat kidney microsome]
Regarding the compounds listed in Table 1, their inhibitory activity to production of 20-HETE was examined.
The subject compound for this examination was added to a buffer comprising 50 mM of 3-morpholinopropane sulfonic acid (pH7.4), 5 mM of magnesium chloride and 1 mM of ethylenediaminetetraacetic acid (EDTA) disodium salt.
After that, the rat kidney microsome (microsome fraction prepared from the kidney of a spontaneous hypertension rat (male, 6 weeks of age)) as an enzyme, [5,6,8,9,11,12,14,15] tritium-arachidonic acid (supplied by Amasham) as a substrate, and NADPH (supplied by Sigma) as a coenzyme were added and reacted for 1.5 hours at 37° C.
After the reaction, formic acid was added to stop the reaction, and then acetonitrile (final concentration of 50%) was added and left for 1.5 hours at room temperature.
The activity of 20-HETE synthase was measured by using a high performance liquid chromatograph having a detector for radioactive substances (supplied by Gilson), and equipped with a C18 reversed phase column (Biocyl C18, supplied by Bio-rad).

[1] = 1 μM of subject compound, rat kidney microsome
[2] = 1 μM of the subject compound added, rat kidney microsome

Row | SMILES | Inhibition rate (1 μM) [1] | Inhibition rate (1 μM) [2] | further results
1 | CCCCN(CCCC)CCCOC(=O)c1ccc(N/C=N/O)cc1 [Comp. 281] | 50.9 | – | –
2 | CCN(CCOc1ccc(N/C=N/O)cc1)c1cccc(C)c1 [Comp. 405] | – | – | Inhibition rate (1 μM) (1 μM of the subject compound): 116.0
3 | O=S(=O)(CCSc1ccccc1N/C=N/O)c1ccc(Cl)cc1 [Comp. 315] | 50.7 | – | –
4 | O/N=C/Nc1ccc(OCc2cccc(Oc3ccccc3)c2)cc1 [Comp. 388] | 96.2 | – | –
5 | COc1cc(OC)c(N/C=N/O)cc1Cl [Comp. 108] | – | 36.4 | –
6 | CCOC(=O)CCSc1ccc(N/C=N/O)cc1 [Comp. 457] | – | – | Inhibition rate (1 μM) (1 μM of the subject compound): 112.6
7 | Cc1ccc(N/C=N/O)cc1Cl [Comp. 86] | – | 58.7 | –
8 | Cc1cc(Br)cc(C)c1N/C=N/O [Comp. 74] | – | 43.7 | –
9 | O/N=C/Nc1cc(C(F)(F)F)ccc1Cl [Comp. 80] | – | 37.2 | –
10 | COC(=O)c1ccc(N/C=N/O)c(C)c1 [Comp. 199] | 85.6 | – | –
11 | CCc1cccc(C(C)C)c1N/C=N/O [Comp. 163] | – | 40.0 | –
12 | O/N=C/Nc1ccccc1 [Comp. 135] | – | 49.3 | –
13 | O/N=C/Nc1ccc(OCCN2CCCCC2)cc1 [Comp. 357] | 98 | – | –
14 | CCOC(=O)c1ccc(N/C=N/O)cc1 [Comp. 183] | – | 92.0 | –
15 | O=[N+]([O-])c1ccc(Sc2ccc(N/C=N/O)cc2)cc1 [Comp. 223] | 52.2 | – | –
16 | CCN(CC)CCOCCOc1ccc(N/C=N/O)cc1 [Comp. 398] | – | – | Inhibition rate (1 μM) (1 μM of the subject compound): 95.2; IC50: 0.0024 µM
17 | CC(C)CCOc1ccc(N/C=N/O)cc1 [Comp. 328] | 121.4 | – | –
18 | CSc1cccc(N/C=N/O)c1 [Comp. 162] | – | 62.6 | –
19 | COc1cccc(N/C=N/O)c1OC [Comp. 99] | – | 40.8 | –
20 | COc1ccc(/C=C/c2ccc(N/C=N/O)cc2)cc1 [Comp. 228] | 72.0 | – | –
21 | CCC1(c2ccc(N/C=N/O)cc2)CCC(=O)NC1=O (stereo not drawn) [Comp. 245] | 55.4 | – | –
22 | O/N=C/Nc1ccc(OCCc2cccc(Br)c2)cc1 [Comp. 376] | 114.9 | – | –
23 | Cn1c(=O)c2c(ncn2CCOc2ccc(N/C=N/O)cc2)n(C)c1=O [Comp. 406] | – | – | Inhibition rate (1 μM) (1 μM of the subject compound): 73.7
24 | CCc1cccc(C)c1N/C=N/O [Comp. 139] | – | 69.7 | –
25 | O/N=C/Nc1ccc(OCCCCc2ccccc2)cc1 [Comp. 381] | 116.0 | – | –

Row | SMILES | Inhibition rate (1 μM) [1] | Inhibition rate (1 μM) [2] | further results
26 | O/N=C/Nc1ccc(SC2CCCCC2)cc1 [Comp. 438] | – | – | Inhibition rate (1 μM) (1 μM of the subject compound): 87.9
27 | COc1cccc(N/C=N/O)c1 [Comp. 65] | – | 59.3 | –
28 | COc1cc(C#N)c(N/C=N/O)cc1OC [Comp. 196] | – | 46.9 | –
29 | COc1ccc(N/C=N/O)c(OC)c1 [Comp. 198] | 81.8 | – | –
30 | Cc1ccc(N/C=N/O)c([N+](=O)[O-])c1 [Comp. 143] | – | 37.3 | –
31 | COc1ccc(N/C=N/O)cc1F [Comp. 98] | – | 43.9 | –
32 | COc1ccc(N/C=N/O)cc1OC [Comp. 78] | – | 36.3 | –
33 | N#CC(c1ccccc1)c1ccc(N/C=N/O)cc1 (stereo not drawn) [Comp. 283] | 62.6 | – | –
34 | O/N=C/Nc1ccc(SC2CCCC2)cc1 [Comp. 447] | – | – | Inhibition rate (1 μM) (1 μM of the subject compound): 95.9
35 | N#Cc1ccc(N/C=N/O)cc1 [Comp. 112] | – | 37.4 | –
36 | CCOC(=O)CSc1ccc(N/C=N/O)cc1 [Comp. 440] | – | – | Inhibition rate (1 μM) (1 μM of the subject compound): 102.8
37 | Cc1cccc(N/C=N/O)c1C [Comp. 63] | – | 49.3 | –
38 | Cc1ccc(CO)cc1N/C=N/O [Comp. 214] | 31.9 | – | –
39 | CCCCCCCCCCc1ccc(N/C=N/O)cc1 [Comp. 157] | – | 121.4 | –
40 | O/N=C/Nc1ccc(C(O)(C(F)(F)F)C(F)(F)F)cc1 [Comp. 105] | – | 46.7 | –
41 | O/N=C/Nc1ccc(I)cc1Cl [Comp. 73] | – | 99.9 | –
42 | CC(C)COC(=O)c1ccc(N/C=N/O)cc1 [Comp. 189] | – | 116.8 | –
43 | Cc1ccc(COc2ccc(N/C=N/O)cc2)cc1 [Comp. 383] | 116.2 | – | –
44 | CCCCCCSc1ccc(N/C=N/O)cc1 [Comp. 451] | – | – | Inhibition rate (1 μM) (1 μM of the subject compound): 97.6
45 | COc1ccc(C(F)(F)F)cc1N/C=N/O [Comp. 90] | – | 36.5 | –
46 | CCCCCCCCc1ccc(N/C=N/O)cc1 [Comp. 70] | – | 32.9 | –
47 | O/N=C/Nc1ccccc1F [Comp. 79] | – | 35.3 | –
48 | O/N=C/Nc1ccc(OCCSc2ccccc2)cc1 [Comp. 419] | – | – | Inhibition rate (1 μM) (1 μM of the subject compound): 116.1
49 | Cc1cc(N/C=N/O)ccc1N1C(=O)c2ccc(Cl)cc2C1=O [Comp. 244] | 32.7 | – | –
50 | O/N=C/Nc1ccc(OCc2ccc(-c3ccccc3)cc2)cc1 [Comp. 397] | 99.3 | – | –

Row | SMILES | Inhibition rate (1 μM) [1] | Inhibition rate (1 μM) [2] | further results
51 | COc1cc(N/C=N/O)cc(OC)c1 [Comp. 76] | – | 35.1 | –
52 | O/N=C/Nc1cccc(Cl)c1Cl [Comp. 81] | – | 51.3 | –
53 | O/N=C/Nc1ccc(OCCCN2CCCC2)cc1 [Comp. 429] | – | – | IC50: 0.0791 µM
54 | CC(C)CCCOc1ccc(N/C=N/O)cc1 [Comp. 327] | 110.1 | – | –
55 | Cc1ccc(N/C=N/O)c(C)c1 [Comp. 22] | – | 95.7 | –
56 | Cc1ccc(N/C=N/O)c(CO)c1 [Comp. 171] | – | 54.1 | –
57 | CCCc1ccccc1N/C=N/O [Comp. 71] | – | 42.5 | –
58 | O=c1ccc2cc(N/C=N/O)ccc2o1 [Comp. 304] | 68.5 | – | –
59 | COc1ccc(Oc2ccc(C(F)(F)F)cc2N/C=N/O)cc1 [Comp. 156] | – | 39.4 | –
60 | CC(C)OC(=O)c1ccc(N/C=N/O)cc1 [Comp. 188] | – | 59.1 | –
61 | Cc1ccc(CCOc2ccc(N/C=N/O)cc2)cc1 [Comp. 372] | 100.5 | – | –
62 | CC(C)=CCCC(C)CCOc1ccc(N/C=N/O)cc1 (stereo not drawn) [Comp. 380] | 118.9 | – | –
63 | COC(=O)c1ccc(OC)c(N/C=N/O)c1 [Comp. 190] | – | 44.9 | –
64 | Cc1ccc2cc(N/C=N/O)ccc2n1 [Comp. 295] | 73.8 | – | –
65 | Cc1cc(C(C#N)c2ccc(Cl)cc2)c(Cl)cc1N/C=N/O (stereo not drawn) [Comp. 279] | 42.8 | – | –
66 | COc1ccc(CCCOc2ccc(N/C=N/O)cc2)cc1OC [Comp. 374] | 119.1 | – | –
67 | CCOc1cccc(N/C=N/O)c1 [Comp. 66] | – | 41.2 | –
68 | CCN(CC)CCSc1ccc(N/C=N/O)cc1 [Comp. 454] | – | – | Inhibition rate (1 μM) (1 μM of the subject compound): 105.8
69 | O/N=C/Nc1ccccc1OC(F)F [Comp. 153] | – | 39.4 | –
70 | CCOc1ccc(N/C=N/O)c([N+](=O)[O-])c1 [Comp. 94] | – | 41.2 | –
71 | O/N=C/Nc1ccc(OCc2ccccc2CCc2ccccc2)cc1 [Comp. 386] | 105.2 | – | –
72 | O/N=C/Nc1ccc(SCCc2ccccc2)cc1 [Comp. 458] | – | – | Inhibition rate (1 μM) (1 μM of the subject compound): 116.0
73 | CC(C)(C)c1cccc(N/C=N/O)c1 [Comp. 175] | – | 69.9 | –
74 | COC(=O)c1ccc(N/C=N/O)cc1 [Comp. 123, N-(4-methoxycarbonylphenyl)-N′-hydroxyformamidine] | – | 92.7 | –
75 | CCN(CC)CCOc1ccc(N/C=N/O)cc1 [Comp. 351] | 89 | – | –

Row | SMILES | Inhibition rate (1 μM) [1] | Inhibition rate (1 μM) [2] | further results
76 | CSCc1cccc(C(F)(F)F)c1N/C=N/O [Comp. 149] | – | 36.5 | –
77 | COc1ccc(C)c(N/C=N/O)c1 [Comp. 104] | – | 31.9 | –
78 | COc1ccc(CCCOc2ccc(N/C=N/O)cc2)cc1 [Comp. 375] | 117.7 | – | –
79 | CCCCSc1ccc(N/C=N/O)cc1 [Comp. 442] | – | – | Inhibition rate (1 μM) (1 μM of the subject compound): 95.7
80 | COc1cc2c(cc1N/C=N/O)oc1ccccc12 [Comp. 277] | 76.4 | – | –
81 | Cc1c(Cl)cccc1N/C=N/O [Comp. 67] | – | 48.4 | –
82 | COC(=O)CSc1ccc(N/C=N/O)cc1 [Comp. 446] | – | – | Inhibition rate (1 μM) (1 μM of the subject compound): 95.9
83 | O=C(OC/C=C/c1ccccc1)c1ccccc1N/C=N/O [Comp. 138] | – | 44.0 | –
84 | O=C(Nc1ccccc1)c1ccccc1N/C=N/O [Comp. 278] | 65.3 | – | –
85 | O/N=C/Nc1cccc(I)c1 [Comp. 91] | – | 36.6 | –
86 | COC(=O)c1cc(I)ccc1N/C=N/O [Comp. 201] | 70.1 | – | –
87 | CC(C)CCSc1ccc(N/C=N/O)cc1 [Comp. 443] | – | – | Inhibition rate (1 μM) (1 μM of the subject compound): 103.0
88 | O/N=C/Nc1cccc2ccccc12 [Comp. 242] | 50.6 | – | –
89 | O/N=C/Nc1ccc(OCCOc2ccccc2)cc1 [Comp. 418] | – | – | Inhibition rate (1 μM) (1 μM of the subject compound): 120.4
90 | CCCCCSc1ccc(N/C=N/O)cc1 [Comp. 450] | – | – | Inhibition rate (1 μM) (1 μM of the subject compound): 105.9
91 | CCCCCCCCCSc1ccc(N/C=N/O)cc1 [Comp. 453] | – | – | Inhibition rate (1 μM) (1 μM of the subject compound): 95.3
92 | O/N=C/Nc1ccc2ncccc2c1 [Comp. 297] | 71.1 | – | –
93 | O/N=C/Nc1c(F)cc(Br)cc1Br [Comp. 210] | 78 | – | –
94 | O/N=C/Nc1ccc2c(c1)Cc1cc(Br)ccc1-2 [Comp. 274] | 94.5 | – | –
95 | CCOC(=O)CCCCCOc1ccc(N/C=N/O)cc1 [Comp. 378] | 102.4 | – | –
96 | CCC(C)CCOc1ccc(N/C=N/O)cc1 (stereo not drawn) [Comp. 326] | 110.8 | – | –
97 | O/N=C/Nc1ccc(Br)cc1Cl [Comp. 35] | – | 95.4 | IC50 (rat kidney microsome): 0.0865 µM
